Where two headings read alike, the source gives them in different places.
Tests used:
[1] = molecular target: glycoprotein 96 (gp96; canine) (Canis lupus familiaris, UniProt P41148); assay: CHIEF against gp96 (ER isoform of HSP90); format: binding; conditions: IEF gel, counter migrant
[2] = test system: SKBR3 cytoplasmic proteins; assay: CHIEF against SKBR3 cytoplasmic proteins; format: binding; conditions: 7 μg protein per lane
Procedure: MBPWT1 peptide was tested as a counter ion to proteins from breast cancer cell line SKBR3. MBP co-synthesised with survivin peptides were also used as alternative sources of counter ions (FIG. 10).
The increased degree of complex formation observed in FIG. 10 prompted a closer evaluation of MBP co-synthesized with the three chosen survivin peptides 20-28, isoform 3 88-96 and 96-104.

[3] = test system: recombinant A. davidanieli HSP70 (adHSP70); format: binding, Arthrobacter davidanieli; conditions: for CHIEF complex formation with adHSP70: substance as counter migrant to adHSP70
[4] = molecular target: rat HSP70 (Rattus norvegicus, UniProt P0DMW0); assay: CHIEF against recombinant rat HSP70; format: binding; conditions: 1 μg HSP70, 15 μg peptide
[5] = molecular target: cytoplasmic recombinant human HSP90 (Homo sapiens, UniProt P07900); assay: CHIEF against recombinant human HSP90; format: binding; conditions: IEF gel, counter migrant
[6] = molecular target: human HSP70 (Homo sapiens, UniProt P0DMV8); assay: CHIEF against recombinant human HSP70; format: binding; conditions: 1 μg HSP70, 15 μg peptide
[7] = test system: MDA MB231 cytoplasmic and membrane associated proteins; assay: CHIEF against subcellular fractions of MDA MB231 breast cancer cells; format: binding; conditions: 80 μg peptide, 10 μg subcellular fraction
Procedure: (§1) Abbreviations: φ=No peptide added at anode; MBPWT1, MBP100-117_WT1 117-134; MBP, MBP100-117; WT1, WT1 117-134. All peptides applied at cathode at a concentration of 80 μg (sic); subcellular fractions applied at cathode at a concentration of 10 μg. The arrowheads in lanes 2, 6, 10 (top), 14 and 18 (top) indicate expected CHIEF complex focusing near the 6.8 pl marker. The arrowheads in lanes 10 (bottom) and 18 (bottom) indicate the appearance of a CHIEF complex focusing near the 7.4 pl marker. The arrowheads in lane 5 and 19 (top and bottom) indicate where there has been cross over of the MBP117-134WT1 peptide into an adjacent lane causing a drive-by or swipe CHIEF complex formation (lane 5, lane 19).
(§2) The example investigates the possibility that the bMBPWT1 peptide binds HSPs directly from cell lysates in a similar manner to when single recombinant HSP was used as a counter ion. Cancer cells are addicted to the overexpression of HSPs to support growth under poor environmental conditions, to facilitate the function of otherwise unstable oncoproteins and the ablation of apoptosis. Most, if not all, cancer cells should provide a rich source of human HSPs to serve as complex forming counter migrants for the MBP peptide co-synthesised with WT1 and SW peptides. […]

[8] = test system: Nalm-6 cytoplasmic and membrane associated proteins; assay: CHIEF against subcellular fractions of Nalm-6 leukemia cells; format: binding
Description: as §1, with “All peptides applied at cathode at a concentration of 80 μg (sic); subcellular fractions applied at cathode at a concentration of 10 μg.” left out
Three identical lanes were prepared for the generation of CHIEF complexes between MBP100-117WT1 117-134 (80 μg) and 10 μg of Nalm-6 membrane associated proteins.
as §2

[9] = molecular target: T1, Recombinant Mycobacterium tuberculosis HSP70 (Mycobacterium tuberculosis, UniProt P9WMJ9); format: binding; conditions: IEF gel, counter migrant
T1 construct: purchased Aalto, Eire

[10] = molecular target: Recombinant murine HSP70 (Mus musculus, UniProt Q61696); assay: CHIEF against recombinant murine HSP70; format: binding; conditions: 40 μg peptide
[11] = test system: HACs from sub-cellular extracts; assay: Fractionation of HACs from sub-cellular extracts; conditions: as second peptide portion of the polypeptide
Description: (§3) In another embodiment, the at least one second peptide portion contributes to the selectivity of the affinity of the polypeptide.

[12] = test system: vesicular material from culture medium or biological fluid; assay: Fractionation of vesicular material; conditions: as second peptide portion of the polypeptide
Description: as §3

[13] = test system: PC3 (prostate cancer); assay: Peptide in extracellular medium of PC3 cells; format: cell-based; conditions: 7-25 μg/mL in extracellular medium, within 24 hours
Procedure: (§4) The alpha helix and flanking sequences may permit the peptides of the application to resist the protease rich medium of cancer cells, a trait shared by human tissue fluids (e.g. serum). […] Since all major cancer causing species rely upon scaffolding by HSPs for stability and function, the peptides may represent a source of direct therapeutic application.
(§5) When the peptides of the present application were included in the extracellular medium of the cancer cell lines (at concentrations of 7-25 μg/mL) such as PC3 (prostate cancer) and MCF7 (breast cancer), there was an inhibition of the protein synthesis and cell lysis within 24 hours. […] Since all major cancer causing species rely upon scaffolding by HSPs for stability and function, the peptides may represent a source of direct therapeutic application.

[14] = test system: MCF7 (breast cancer); assay: Peptide in extracellular medium of MCF7 cells; format: cell-based; conditions: 7-25 μg/mL in extracellular medium, within 24 hours
Procedure: as §4, §5

T1 sequence (P9WMJ9 whole entry): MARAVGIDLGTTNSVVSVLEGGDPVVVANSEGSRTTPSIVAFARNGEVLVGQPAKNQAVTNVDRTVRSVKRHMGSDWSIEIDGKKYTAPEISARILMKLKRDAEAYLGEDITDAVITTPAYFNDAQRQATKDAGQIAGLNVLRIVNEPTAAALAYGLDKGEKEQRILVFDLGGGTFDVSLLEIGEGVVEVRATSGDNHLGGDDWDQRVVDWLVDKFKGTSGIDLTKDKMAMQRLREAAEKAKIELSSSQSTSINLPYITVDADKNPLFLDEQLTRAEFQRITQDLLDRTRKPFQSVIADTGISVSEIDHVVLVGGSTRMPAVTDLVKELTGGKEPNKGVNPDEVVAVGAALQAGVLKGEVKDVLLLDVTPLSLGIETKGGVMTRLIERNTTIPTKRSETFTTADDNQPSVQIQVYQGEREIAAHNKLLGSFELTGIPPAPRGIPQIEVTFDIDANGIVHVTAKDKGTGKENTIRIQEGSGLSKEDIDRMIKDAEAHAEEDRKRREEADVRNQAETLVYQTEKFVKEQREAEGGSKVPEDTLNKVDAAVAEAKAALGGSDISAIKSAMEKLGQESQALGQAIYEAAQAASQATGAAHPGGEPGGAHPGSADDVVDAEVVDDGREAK
human HSP70, sequence (P0DMV8 whole entry): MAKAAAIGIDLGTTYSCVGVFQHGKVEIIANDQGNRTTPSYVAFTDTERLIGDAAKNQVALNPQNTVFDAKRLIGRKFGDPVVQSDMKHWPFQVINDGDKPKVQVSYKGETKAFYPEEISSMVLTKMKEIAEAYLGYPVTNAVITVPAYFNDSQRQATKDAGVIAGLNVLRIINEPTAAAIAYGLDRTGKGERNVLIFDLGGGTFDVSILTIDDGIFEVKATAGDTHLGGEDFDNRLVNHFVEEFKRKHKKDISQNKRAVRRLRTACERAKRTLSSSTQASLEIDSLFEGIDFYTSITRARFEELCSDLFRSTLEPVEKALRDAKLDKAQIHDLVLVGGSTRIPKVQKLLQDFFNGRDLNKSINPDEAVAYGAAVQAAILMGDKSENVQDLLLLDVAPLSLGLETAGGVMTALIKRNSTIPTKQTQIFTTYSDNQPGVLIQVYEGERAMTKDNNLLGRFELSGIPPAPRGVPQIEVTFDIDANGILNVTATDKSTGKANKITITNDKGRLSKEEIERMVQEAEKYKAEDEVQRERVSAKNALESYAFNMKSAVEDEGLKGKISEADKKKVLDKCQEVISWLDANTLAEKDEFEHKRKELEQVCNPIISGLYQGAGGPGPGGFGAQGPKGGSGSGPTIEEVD
Recombinant murine HSP70, sequence (Q61696 whole entry): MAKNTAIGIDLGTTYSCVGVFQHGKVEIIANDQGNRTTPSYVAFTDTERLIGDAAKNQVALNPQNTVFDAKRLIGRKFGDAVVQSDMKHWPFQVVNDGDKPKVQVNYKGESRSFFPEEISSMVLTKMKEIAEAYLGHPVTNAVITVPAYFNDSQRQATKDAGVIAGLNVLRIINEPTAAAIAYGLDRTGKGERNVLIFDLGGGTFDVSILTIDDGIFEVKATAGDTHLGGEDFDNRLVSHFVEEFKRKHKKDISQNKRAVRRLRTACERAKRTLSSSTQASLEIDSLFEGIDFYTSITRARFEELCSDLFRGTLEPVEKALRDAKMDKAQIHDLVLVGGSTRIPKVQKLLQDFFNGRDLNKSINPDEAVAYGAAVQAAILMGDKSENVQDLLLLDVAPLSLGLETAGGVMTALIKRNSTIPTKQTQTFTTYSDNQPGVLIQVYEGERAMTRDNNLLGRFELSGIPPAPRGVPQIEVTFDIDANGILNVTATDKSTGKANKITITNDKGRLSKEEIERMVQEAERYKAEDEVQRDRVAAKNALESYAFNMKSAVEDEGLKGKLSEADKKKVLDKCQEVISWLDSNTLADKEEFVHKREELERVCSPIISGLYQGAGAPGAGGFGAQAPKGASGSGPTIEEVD
glycoprotein 96 (gp96; canine), sequence (P41148 22-804): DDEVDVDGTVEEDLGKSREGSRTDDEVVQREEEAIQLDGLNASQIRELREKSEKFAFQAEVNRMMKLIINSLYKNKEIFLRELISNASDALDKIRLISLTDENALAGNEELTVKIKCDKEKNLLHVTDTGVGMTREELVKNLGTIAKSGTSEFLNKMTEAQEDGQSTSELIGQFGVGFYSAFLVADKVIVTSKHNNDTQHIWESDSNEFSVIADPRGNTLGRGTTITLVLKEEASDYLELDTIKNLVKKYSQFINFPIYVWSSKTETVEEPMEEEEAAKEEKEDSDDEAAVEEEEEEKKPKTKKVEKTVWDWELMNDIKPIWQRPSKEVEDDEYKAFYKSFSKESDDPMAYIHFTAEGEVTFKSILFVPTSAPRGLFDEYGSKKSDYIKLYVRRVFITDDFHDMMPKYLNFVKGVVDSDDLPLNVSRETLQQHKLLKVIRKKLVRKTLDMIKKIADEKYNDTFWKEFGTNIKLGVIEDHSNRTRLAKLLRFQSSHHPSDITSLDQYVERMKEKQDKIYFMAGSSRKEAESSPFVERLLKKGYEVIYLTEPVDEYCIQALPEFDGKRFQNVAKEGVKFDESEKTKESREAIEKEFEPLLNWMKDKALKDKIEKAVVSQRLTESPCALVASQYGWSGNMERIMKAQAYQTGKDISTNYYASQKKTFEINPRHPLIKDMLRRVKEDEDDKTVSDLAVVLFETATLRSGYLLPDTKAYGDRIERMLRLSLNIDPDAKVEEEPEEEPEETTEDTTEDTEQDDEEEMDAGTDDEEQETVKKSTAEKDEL
rat HSP70, sequence (P0DMW0 whole entry): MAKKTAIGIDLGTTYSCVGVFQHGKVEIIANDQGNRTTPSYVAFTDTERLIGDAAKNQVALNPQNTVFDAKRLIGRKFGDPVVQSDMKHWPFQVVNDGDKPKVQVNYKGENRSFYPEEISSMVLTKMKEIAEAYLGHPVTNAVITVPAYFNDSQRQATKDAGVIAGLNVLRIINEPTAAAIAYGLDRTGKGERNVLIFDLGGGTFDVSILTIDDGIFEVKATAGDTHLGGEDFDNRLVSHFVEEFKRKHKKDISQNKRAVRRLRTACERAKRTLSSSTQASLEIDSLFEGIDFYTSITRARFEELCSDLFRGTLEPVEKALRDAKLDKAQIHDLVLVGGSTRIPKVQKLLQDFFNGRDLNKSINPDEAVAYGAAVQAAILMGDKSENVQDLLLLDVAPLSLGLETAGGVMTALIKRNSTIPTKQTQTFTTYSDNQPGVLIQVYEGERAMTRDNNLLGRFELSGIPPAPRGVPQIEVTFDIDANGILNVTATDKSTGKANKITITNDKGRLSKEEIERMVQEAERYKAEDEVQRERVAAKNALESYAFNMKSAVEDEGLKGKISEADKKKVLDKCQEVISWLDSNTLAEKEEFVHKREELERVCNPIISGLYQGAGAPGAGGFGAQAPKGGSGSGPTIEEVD

MBPWT1: MBP peptide 100-117 co-synthesised with Wilms tumor protein 1 peptide 117-134 (PSQGKGRGLSLSRFSWGAPSQASSGQARMFPNAPYL)
CHIEF complex formation with gp96 [1]: produced complexes
CHIEF complex formation with SKBR3 proteins [2]: Small counter migrant complexes formed
CHIEF complex formation with adHSP70 ([3]; IEF gel): appeared to augment the formation of the complex
CHIEF complex formation with rat HSP70 [4]: Some evidence of counter migrant complex formation
CHIEF complex formation with human HSP90 [5]: produced complexes
CHIEF complex formation with human HSP70 [6]: Some evidence of counter migrant complex formation
CHIEF complex formation with MDA MB231 cytoplasmic proteins [7]: yielded similar CHIEF complexes
CHIEF complex formation with Nalm-6 cytoplasmic proteins ([8]; 80 μg peptide, 10 μg subcellular fraction): yielded similar CHIEF complexes
CHIEF complex formation with Nalm-6 proteins at lower peptide amount ([8]; concentrations below 80 μg): occasionally produced only modest complexes

MBP 62-78: candidate binding peptide, residues 62-78 of bovine myelin basic protein (ARTTHYGSLPQKAQGHR)
CHIEF complex formation with adHSP70 ([3]; IEF gel): negligible binding

myoglobin
CHIEF complex formation with adHSP70 ([3]; IEF gel): did not interact

histone 2A
CHIEF complex formation with adHSP70 ([3]; IEF gel): yielded an identical complex

PSQGKGRGLSLSRFSWGA (listed as Bos taurus) [SEQ ID NO: 2]
CHIEF complex formation with M. tuberculosis HSP70 ([9]; listed as 100-117): produced counter ion complexes
CHIEF complex formation with M. tuberculosis HSP70 ([9]; listed as MBP peptide): counter migrant complex formed
effect of high peptide concentration on complex formation with adHSP70 ([3]; 100 μg peptide, 2 μg adHSP70): appears to inhibit complex formation
CHIEF complex formation with adHSP70 ([3]; IEF gel, listed as 100-117): produced counter ion complexes
CHIEF complex formation with adHSP70 ([3]; IEF gel, listed as MBP 100-117): binding
CHIEF complex formation with adHSP70 ([3]; IEF gel, listed as MBP peptide): far more limited complex formation
CHIEF complex formation with murine HSP70 [10]: complexed

lysozyme
CHIEF complex formation with M. tuberculosis HSP70 [9]: complexed
CHIEF complex formation with adHSP70 ([3]; IEF gel): did bind

trypsinogen
CHIEF complex formation with adHSP70 ([3]; IEF gel): did not interact

LRRKCAVPS (listed as Homo sapiens) [SEQ ID NO: 9]
efficiency of fractionating HACs from sub-cellular extracts [11]: more efficiently fractionated

carbonic anhydrase
CHIEF complex formation with adHSP70 ([3]; IEF gel): did not interact

LTLGEFLKL (listed as Homo sapiens) [SEQ ID NO: 8]
efficiency of fractionating vesicular material [12]: more efficient

PSQGKGRGLSLSRFSWGALRRKCAVPS [SEQ ID NO: 66]
effect on protein synthesis and cell lysis, PC3 [13]: drastic inhibition of protein synthesis and cell lysis
CHIEF complex formation with SKBR3 proteins [2]: much larger band formed
effect on protein synthesis and cell lysis, MCF7 [14]: drastic inhibition of protein synthesis and cell lysis

WT1 117-134: Wilms tumor protein 1 peptide 117-134 (PSQASSGQARMFPNAPYL) [reference compound]
CHIEF complex formation with adHSP70 ([3]; IEF gel): no evidence of binding
CHIEF complex formation with adHSP70 ([3]; IEF gel, listed as WT1): limited complex formation

B1: Bovine myelin basic protein (protein)
chain: AAQKRPSQRSKYLASASTMDHARHGFLPRHRDTGILDSLGRFFGSDRGAPKRGSGKDGHHAARTTHYGSLPQKAQGHRPQDENPVVHFFKNIVTPRTPPPSQGKGRGLSLSRFSWGAEGQKPGFGYGGRASDYKSAHKGLKGHDAQGTLSKIFKLGGRDSRSGSPMARR
CHIEF complex formation with M. tuberculosis HSP70 [9]: complexed
focusing position (pI marker) of CHIEF complex with adHSP70 ([3]; IEF gel): ~6.5
CHIEF complex formation with adHSP70 ([3]; IEF gel): bound
CHIEF complex formation with adHSP70 ([3]; IEF gel, listed as MBP): binding

From patent US8956878B2, “Polypeptides with affinity for heat shock proteins (HSPS) and HSP associated complexes (HACS) and their use in diagnosis and therapy” (Atlantic Cancer Research Institute, priority 2011, dated 2015)
